Data from US7435727B2, “Method for isolating an intestinal cholesterol binding protein” (Sanofi-Aventis Deutschland GmbH, priority 2002, dated 2008).

Tests used:
[1] = test system: 145 kDa binding protein for cholesterol absorption inhibitors; assay: Photoaffinity labeling with biotin-tagged C-4 and extraction with streptavidin beads; parameters: species or system rabbit
Description: 10 Samples of rabbit ileal brush border membrane vesicles (200 µg of protein) were incubated with 200 μM of the biotin-tagged cholesterol inhibitor C-4 in 10 mM Tris/Hepes buffer (pH 7.4)/100 mM NaCl/100 mM mannitol for 30 min in the dark at 20° C. followed by irradiation at 254 nm for 30 sec in a Rayonet RPR-100 photochemical reactor equipped with 4 RPR 2537 Å-lamps. After collecting, the vesicles were washed 3 times with 2 ml Tris/Hepes buffer (pH 7.4)/300 mM mannitol. The final pellet was suspended in 2 ml of “solubilization buffer” for 1 hour at 4° C. After centrifugation, the clear supernatant was mixed with 0.5 ml of streptavidin-agarose beads and kept under stirring at 4° C. for 2 hours. After centrifugation, the beads were incubated with 2 ml 10 mM Tris/Hepes buffer (pH 7.4)/300 mM mannitol/1% n-octylglucoside/4 mM PMSF/4 mM iodacetamide/4 mM EDTA/for 10 min at 4° C. followed by centrifugation. After repeating this procedure twice, proteins were eluted from the streptavidin-agarose beads with 3 portions a 2 ml of the above buffer containing 5 mM biotin. From all eluates aliquots were removed for the determination of the enzymatic activity of aminopeptidase N and sucrase and for analysis by SDS-PAGE. For final purification the biotin eluates containing the covalently modified 145 kDa binding protein for cholesterol absorption inhibitors was achieved by preparative SDS gel electrophoresis as described above.
Rabbit small intestinal BBMV were incubated with 200 μM of C-4 and crosslinking was achieved by ultraviolet irradiation at 254 nm. After solubilization the covalently modified proteins containing the biotin-tagged 2-azetidinone cholesterol absorption inhibitors were extracted with streptavidin-beads. After intensive washing bound proteins were eluted with a 10 mM solution of biotin and analyzed by SDS-PAGE. […] Therefore, the 145 kDa binding protein could only be purified from those anatomical sites where intestinal cholesterol absorption occurs, the duodenum, jejunum and ileum. […]

[2] = test system: intestinal cholesterol absorption; assay: Inhibition of intestinal cholesterol absorption (modified Zilversmit/Hughes method); type: in vivo; details: NMRI mice, application of the biotin-tagged photoaffinity label
Description: Intestinal cholesterol absorption was determined by a modification of the Zilversmit/Hughes method. Male NMRI mice (Charles River Deutschland GmbH, Salzfeld, Germany) kept on regular chow (Altronin®, Lage, Germany) were starved for 12 hours. Then, 0.5 ml of a solution of 0.5% methylcellulose/5% Solutol (BASF, Ludwigshafen, Germany) as vehicle with or without 3 mg of the respective cholesterol absorption inhibitor were applied by gavage to each animal followed by 0.25 ml of Intralipid® (Pharmacia & Upjohn, Erlangen, Germany) solution containing 0.24 μCi [^14C]cholesterol and 0.25 μCi [^3H]sitosterol. The animals (five mice per group) were kept on metabolism cages and feces were collected. After 24 hours the animals were killed and the radioactivity in the feces and the liver was determined by combustion analysis.
(§1) For a one-step purification of the target-protein for cholesterol absorption inhibitors we have coupled the biotin-containing photolabile group N-(biotinyl)-4-azidophenyl alanine via a spacer to the para-position of the N-phenyl or benzylamino ring of 2-azetidinone cholesterol absorption inhibitors.

[3] = test system: 145 kDa binding protein for cholesterol absorption inhibitors; assay: Photoaffinity labeling of small intestinal BBMV with [3H]C-1 in the presence of competitor; details: rabbit small intestinal BBMV, increasing concentrations of competitor
Description: 8 Samples of rabbit ileal brush border membrane vesicles (250 μg of protein) were incubated with 66 nM (0.3 μCi) of [^3H]C-1 in 10 mM Tris/Hepes buffer (pH 7.4)/100 mM NaCl/100 mM mannitol for 30 min at 20° C. in the dark. After irradiation for 30 sec at 254 nm in a Rayonet RPR 100 photochemical reactor equipped with 4 RPR 2537 Å lamps (The Southern Ultraviolet Company, Hamden, Conn., USA) the samples were collected and after centrifugation the membrane vesicles were resuspended in 2 ml 10 mM Tris/Hepes buffer (pH 7.4)/300 mM mannitol and centrifugated after 20 min at 20° C. This procedure was repeated three times. The resulting pellet was solubilized with 2 ml “solubilization buffer”. After centrifugation, a 40 μl aliquot of the supernatant was removed and analyzed by SDS PAGE and subsequent slicing of the gel for incorporation of radioactivity into membrane proteins.
as §1

amount of 145 kDa protein extractable with streptavidin beads ([1]; competitor present during photolabeling with C-4, 200 μM for cholesterol absorption inhibitors)	extent of labeling of the 145 kDa-protein by [3H]C-1 [3]	SMILES	intestinal cholesterol absorption [2]	145 kDa protein retarded by streptavidin beads after labeling of membranes from other organs ([1]; BBMV from stomach, cecum, colon, rectum, kidney, liver or adipocytes)	proteins retained by the streptavidin-beads after crosslinking ([1]; rabbit small intestinal BBMV, 200 μM C-4, ultraviolet irradiation at 254 nm, SDS-PAGE)
reduced		O=C1[C@H](CC[C@H](O)c2ccc(F)cc2)[C@@H](c2ccc(O)cc2)N1c1ccc(F)cc1 [Ezetimibe, reference compound]			
	concentration-dependent decrease	COc1ccc(C2C(CC[C@H](O)c3ccccc3)C(=O)N2c2ccc(NC(=O)CCCCNC(=O)C(Cc3ccc(N=[N+]=[N-])cc3)NC(=O)CCCCC3SCC4NC(=O)NC43)cc2)cc1 (some centres unmarked) [C-4, 5-(2-Oxo-hexahydro-thieno[3,4-d]imidazol-6-yl)-pentanoic acid-[2-(4-azido-phenyl)-1-(4-{4-[3-(3-hydroxy-3-phenyl-propyl)-2-(4-methoxy-phenyl)4-oxo-azetidin-1-yl]-phenylcarbamoyl}-butylcarbamoyl)-ethyl]-amid]	dose-dependently inhibited	no 145 kDa protein was retarded by streptavidin beads	Predominantly one protein of Mr 145 kDa was retained
